Source: US20230002359A1, “PESTICIDALLY ACTIVE FUSED BICYCLIC HETEROAROMATIC COMPOUNDS” (priority 2019, published 2023)

Columns and labels:
Assay type in all cases: in vivo
[1] = tested on: Diabrotica Balteata (Corn Root Worm); assay: Example B1: Diabrotica balteata (corn root worm), maize sprouts sprayed, L2 larvae; conditions: 96 h, application rate of 200 ppm, 4 days after infestation, L2 larvae, read-out: control in at least one of the two categories (mortality or growth inhibition)
Method: Maize sprouts placed onto an agar layer in 24-well microtiter plates were treated with aqueous test solutions prepared from 10′000 ppm DMSO stock solutions by spraying. After drying, the plates were infested with L2 larvae (6 to 10 per well). The samples were assessed for mortality and growth inhibition in comparison to untreated samples 4 days after infestation.

[2] = tested on: Chilo suppressalis (Striped Rice Stemborer); assay: Example B3: Chilo suppressalis (striped rice stemborer), artificial diet, L2 larvae; conditions: 144 h, application rate of 200 ppm, 6 days after infestation, L2 larvae, read-out: control in at least one of the three categories (mortality, anti-feedant effect, or growth inhibition)
Method: 24-well microtiter plates with artificial diet were treated with aqueous test solutions prepared from 10′000 ppm DMSO stock solutions by pipetting. After drying, the plates were infested with L2 larvae (6-8 per well). The samples were assessed for mortality, anti-feeding effect, and growth inhibition in comparison to untreated samples 6 days after infestation. Control of Chilo suppressalis by a test sample is given when at least one of the categories mortality, anti-feedant effect, and growth inhibition is higher than the untreated sample.

[3] = tested on: Plutella xylostella (Diamond Back Moth); assay: Example B4: Plutella xylostella (diamond back moth), artificial diet, eggs, 24-well; conditions: 192 h, application rate of 200 ppm, 8 days after infestation, eggs, read-out: control in at least one of the two categories (mortality or growth inhibition)
Method: 24-well microtiter plates with artificial diet were treated with aqueous test solutions prepared from 10′000 ppm DMSO stock solutions by pipetting. After drying, Plutella eggs were pipetted through a plastic stencil onto a gel blotting paper and the plate was closed with it. The samples were assessed for mortality and growth inhibition in comparison to untreated samples 8 days after infestation.

[4] = tested on: Spodoptera littoralis (Egyptian Cotton Leaf Worm); assay: Example B7: Spodoptera littoralis (Egyptian cotton leaf worm), cotton leaf discs sprayed, L1 larvae; conditions: foliar, 72 h, application rate of 200 ppm, 3 days after infestation, L1 larvae, read-out: control in at least one of the three categories (mortality, anti-feedant effect, or growth inhibition)
Method: Cotton leaf discs were placed onto agar in 24-well microtiter plates and sprayed with aqueous test solutions prepared from 10′000 ppm DMSO stock solutions. After drying the leaf discs were infested with five L1 larvae. The samples were assessed for mortality, anti-feeding effect, and growth inhibition in comparison to untreated samples 3 days after infestation. Control of Spodoptera littoralis by a test sample is given when at least one of the categories mortality, anti-feedant effect, and growth inhibition is higher than the untreated sample.

CC(c1ncnn1-c1ccc(C#N)cn1)N(C#N)c1ncnc2c(C(F)(F)F)cc(C(F)(F)F)cc12 (stereo not shown) [P.9, [6,8-bis(trifluoromethyl)quina-zolin-4-yl]-[1-[2-(5-cyano-2-pyridyl)-1,2,4-triazol-3-yl]ethyl]cyanamide]
≥ 80%: percent control (mortality or growth inhibition) at 200 ppm [1] | percent control (mortality, anti-feedant effect or growth inhibition) at 200 ppm [2] | percent control (mortality or growth inhibition) at 200 ppm [3] | percent control (mortality, anti-feedant effect or growth inhibition) at 200 ppm [4]

CC(Nc1ncnc2c(Br)cc(OC(F)(F)F)cc12)c1nccnc1-n1nccn1 (stereo not shown) [P.13, 8-bromo-N-[1-[3-(triazol-2-yl)pyrazin-2-yl]ethyl]-6-(trifluoromethoxy)quina-zolin-4-amine]
≥ 80%: percent control (mortality or growth inhibition) at 200 ppm [1] | percent control (mortality, anti-feedant effect or growth inhibition) at 200 ppm [2] | percent control (mortality or growth inhibition) at 200 ppm [3] | percent control (mortality, anti-feedant effect or growth inhibition) at 200 ppm [4]

CC(Nc1ncnc2c(OC(F)(F)F)cc(Br)cc12)c1nccnc1-n1nccn1 (stereo not shown) [P.14, 6-bromo-N-[1-[3-(triazol-2-yl)pyrazin-2-yl]ethyl]-8-(trifluoromethoxy)quina-zolin-4-amine]
≥ 80%: percent control (mortality or growth inhibition) at 200 ppm [1] | percent control (mortality, anti-feedant effect or growth inhibition) at 200 ppm [2] | percent control (mortality or growth inhibition) at 200 ppm [3] | percent control (mortality, anti-feedant effect or growth inhibition) at 200 ppm [4]

C[C@H](Nc1ncnc2c(Cl)cc(C(F)(F)F)cc12)c1ncnn1-c1ccc(C#N)cn1 [P.17, 6-[5-[(1S)-1-[[8-chloro-6-(trifluoromethyl)quinazolin-4-yl]amino]ethyl]-1,2,4-triazol-1-yl]pyridine-3-carbonitrile]
≥ 80%: percent control (mortality or growth inhibition) at 200 ppm [1] | percent control (mortality, anti-feedant effect or growth inhibition) at 200 ppm [2] | percent control (mortality or growth inhibition) at 200 ppm [3] | percent control (mortality, anti-feedant effect or growth inhibition) at 200 ppm [4]

C[C@@H](c1ncnn1-c1ccc(C#N)cn1)N(C)c1ncnc2c(Cl)cc(C(F)(F)F)cc12 [P.19, 6-[5-[(1S)-1-[[8-chloro-6-(trifluoromethyl)quinazolin-4-yl]-methyl-amino]ethyl]-1,2,4-triazol-1-yl]pyridine-3-carbonitrile]
≥ 80%: percent control (mortality or growth inhibition) at 200 ppm [1] | percent control (mortality, anti-feedant effect or growth inhibition) at 200 ppm [2] | percent control (mortality or growth inhibition) at 200 ppm [3] | percent control (mortality, anti-feedant effect or growth inhibition) at 200 ppm [4]

CC(Nc1ncnc2c(Br)cc(Br)cc12)c1ncnn1-c1ccc(C#N)cn1 (stereo not shown) [P.30, 6-[5-[1-[(6,8-dibromoquinazolin-4-yl)amino]ethyl]-1,2,4-triazol-1-yl]pyridine-3-carbonitrile]
≥ 80%: percent control (mortality or growth inhibition) at 200 ppm [1] | percent control (mortality, anti-feedant effect or growth inhibition) at 200 ppm [2] | percent control (mortality or growth inhibition) at 200 ppm [3] | percent control (mortality, anti-feedant effect or growth inhibition) at 200 ppm [4]

CC(Nc1ncnc2c(OC(F)F)cc(Br)cc12)c1nccnc1-n1nccn1 (stereo not shown) [P.31, 6-bromo-8-(difluoromethoxy)-N-[1-[3-(triazol-2-yl)pyrazin-2-yl]ethyl]quinazolin-4-amine]
≥ 80%: percent control (mortality or growth inhibition) at 200 ppm [1] | percent control (mortality, anti-feedant effect or growth inhibition) at 200 ppm [2] | percent control (mortality or growth inhibition) at 200 ppm [3] | percent control (mortality, anti-feedant effect or growth inhibition) at 200 ppm [4]

CC(Nc1ncnc2c(C(F)(F)F)cc(Br)cc12)c1nccnc1-n1nccn1 (stereo not shown) [P.33, 6-bromo-N-[1-[3-(triazol-2-yl)pyrazin-2-yl]ethyl]-8-(trifluoromethyl)quinazolin-4-amine]
≥ 80%: percent control (mortality or growth inhibition) at 200 ppm [1] | percent control (mortality, anti-feedant effect or growth inhibition) at 200 ppm [2] | percent control (mortality or growth inhibition) at 200 ppm [3] | percent control (mortality, anti-feedant effect or growth inhibition) at 200 ppm [4]

CC(Nc1ncnc2c(Br)cc(C(F)(F)F)cc12)c1nccnc1-n1nccn1 (stereo not shown) [P.34, 8-bromo-N-[1-[3-(triazol-2-yl)pyrazin-2-yl]ethyl]-6-(trifluoromethyl)quinazolin-4-amine]
≥ 80%: percent control (mortality or growth inhibition) at 200 ppm [1] | percent control (mortality, anti-feedant effect or growth inhibition) at 200 ppm [2] | percent control (mortality or growth inhibition) at 200 ppm [3] | percent control (mortality, anti-feedant effect or growth inhibition) at 200 ppm [4]

CC(Nc1ncnc2c(Cl)cc(C(F)(F)F)cc12)c1nccnc1-n1nccn1 (stereo not shown) [P.35, 8-chloro-N-[1-[3-(triazol-2-yl)pyrazin-2-yl]ethyl]-6-(trifluoromethyl)quinazolin-4-amine]
≥ 80%: percent control (mortality or growth inhibition) at 200 ppm [1] | percent control (mortality, anti-feedant effect or growth inhibition) at 200 ppm [2] | percent control (mortality or growth inhibition) at 200 ppm [3] | percent control (mortality, anti-feedant effect or growth inhibition) at 200 ppm [4]

CC(Nc1ncnc2c(Br)cc(Br)cc12)c1nccnc1-n1nccn1 (stereo not shown) [P.37, 6,8-dibromo-N-[1-[3-(triazol-2-yl)pyrazin-2-yl]ethyl]quinazolin-4-amine]
≥ 80%: percent control (mortality or growth inhibition) at 200 ppm [1] | percent control (mortality, anti-feedant effect or growth inhibition) at 200 ppm [2] | percent control (mortality or growth inhibition) at 200 ppm [3] | percent control (mortality, anti-feedant effect or growth inhibition) at 200 ppm [4]

CC(Nc1ncnc2c(Br)cc(Br)cc12)c1nccnc1-c1ncccn1 (stereo not shown) [P.38, 6,8-dibromo-N-[1-(3-pyrimidin-2-ylpyrazin-2-yl)ethyl]quinazolin-4-amine]
≥ 80%: percent control (mortality or growth inhibition) at 200 ppm [1] | percent control (mortality, anti-feedant effect or growth inhibition) at 200 ppm [2] | percent control (mortality or growth inhibition) at 200 ppm [3] | percent control (mortality, anti-feedant effect or growth inhibition) at 200 ppm [4]

CC(Nc1ncnc2c(C(F)(F)F)cc(Cl)cc12)c1nccnc1-n1nccn1 (stereo not shown) [P.39, 6-chloro-N-[1-[3-(triazol-2-yl)pyrazin-2-yl]ethyl]-8-(trifluoromethyl)quinazolin-4-amine]
≥ 80%: percent control (mortality or growth inhibition) at 200 ppm [1] | percent control (mortality, anti-feedant effect or growth inhibition) at 200 ppm [2] | percent control (mortality or growth inhibition) at 200 ppm [3] | percent control (mortality, anti-feedant effect or growth inhibition) at 200 ppm [4]

CC(Nc1ncnc2c(C(F)(F)F)cc(C(F)(F)F)cc12)c1nccnc1-n1nccn1 (stereo not shown) [P.56, N-[1-[3-(triazol-2-yl)pyrazin-2-yl]ethyl]-6,8-bis(trifluoromethyl)quina-zolin-4-amine]
≥ 80%: percent control (mortality or growth inhibition) at 200 ppm [1] | percent control (mortality, anti-feedant effect or growth inhibition) at 200 ppm [2] | percent control (mortality or growth inhibition) at 200 ppm [3] | percent control (mortality, anti-feedant effect or growth inhibition) at 200 ppm [4]

CC(Nc1ncnc2c(Br)cc(C(F)(F)F)cc12)c1nccnc1-c1ncccn1 (stereo not shown) [P.96, 8-bromo-N-[1-(3-pyrimidin-2-ylpyrazin-2-yl)ethyl]-6-(trifluoromethyl)quinazolin-4-amine]
≥ 80%: percent control (mortality or growth inhibition) at 200 ppm [1] | percent control (mortality, anti-feedant effect or growth inhibition) at 200 ppm [2] | percent control (mortality or growth inhibition) at 200 ppm [3] | percent control (mortality, anti-feedant effect or growth inhibition) at 200 ppm [4]

CC(c1nccnc1-c1ncccn1)N(C)c1ncnc2c(Br)cc(C(F)(F)F)cc12 (stereo not shown) [P.97, 8-bromo-N-methyl-N-[1-(3-pyrimidin-2-ylpyrazin-2-yl)ethyl]-6-(trifluoromethyl)quinazolin-4-amine]
≥ 80%: percent control (mortality or growth inhibition) at 200 ppm [1] | percent control (mortality, anti-feedant effect or growth inhibition) at 200 ppm [2] | percent control (mortality or growth inhibition) at 200 ppm [3] | percent control (mortality, anti-feedant effect or growth inhibition) at 200 ppm [4]

CC(c1nccnc1-c1ncccn1)N(CC1CC1)c1ncnc2c(Br)cc(C(F)(F)F)cc12 (stereo not shown) [P.99, 8-bromo-N-(cyclopropylmethyl)-N-[1-(3-pyrimidin-2-ylpyrazin-2-yl)ethyl]-6-(trifluoromethyl)quinazolin-4-amine]
≥ 80%: percent control (mortality or growth inhibition) at 200 ppm [1] | percent control (mortality, anti-feedant effect or growth inhibition) at 200 ppm [2] | percent control (mortality or growth inhibition) at 200 ppm [3] | percent control (mortality, anti-feedant effect or growth inhibition) at 200 ppm [4]

CC(c1nccnc1-c1ncccn1)N(C)c1ncnc2c(Cl)cc(C(F)(F)F)cc12 (stereo not shown) [P.100, 8-chloro-N-methyl-N-[1-(3-pyrimidin-2-ylpyrazin-2-yl)ethyl]-6-(trifluoromethyl)quinazolin-4-amine]
≥ 80%: percent control (mortality or growth inhibition) at 200 ppm [1] | percent control (mortality, anti-feedant effect or growth inhibition) at 200 ppm [2] | percent control (mortality or growth inhibition) at 200 ppm [3] | percent control (mortality, anti-feedant effect or growth inhibition) at 200 ppm [4]

CC(Nc1ncnc2c(Cl)cc(C(F)(F)F)cc12)c1nccnc1-c1ncccn1 (stereo not shown) [P.101, 8-chloro-N-[1-(3-pyrimidin-2-ylpyrazin-2-yl)ethyl]-6-(trifluoromethyl)quinazolin-4-amine]
≥ 80%: percent control (mortality or growth inhibition) at 200 ppm [1] | percent control (mortality, anti-feedant effect or growth inhibition) at 200 ppm [2] | percent control (mortality or growth inhibition) at 200 ppm [3] | percent control (mortality, anti-feedant effect or growth inhibition) at 200 ppm [4]
